In this assay the test system is influenza A virus FM1 strain. In kind it is cell-based.

The values below come from US8551541B2, “Disinfectant making air fresh and preparation and method and use thereof” (priority 2009, dated 2013).

Regarding `NC(=O)c1ncn([C@@H]2O[C@H](CO)[C@@H](O)[C@H]2O)n1` [Ribavirin], the “inhibitory effect on FM1 (in words)” value is “markedly inhibitory effect”.
